In one data set the test system is HepG2.2.15 cell line. The note with it: MTT assay. In general terms: Tetrazolium assays rely on reduction of a dye to a coloured formazan, in cell work by metabolically active cells.
Data set [1] concerns HBV-transgenic mice (strain 1.3.32). It counts as in vivo. The note with it: oral gavage once daily for 14 days.

`Fc1cccc(Cl)c1C1CC(c2ccc(Cl)cc2)Nc2ncnn21` (racemic) [Compound 1a, 7-(2-Chloro-6-fluorophenyl)-5-(4-chlorophenyl)-4,5,6,7-tetrahydro-[1,2,4]triazolo[1,5-a]pyrimidine]: the “No cytotoxicity observed up to the highest concentration tested” value in the data set on HepG2.2.15 cell line was more than 50 µM. Also, in data set [1], the “alanine transaminase (ALT) and bilirubin” value was “elevated levels of alanine transaminase (ALT) and bilirubin in a minority of treated animals”; the “other serum chemistry changes” value was “did not result in any other obvious and significant dose-dependent serum chemistry changes”; the total sodium result is reported as “slight rise in total sodium”. In data set [1] (25 and 7.9 mg/kg), the “deaths as a result of compound exposure” value is given as “No animals were observed to have died as a result of compound exposure” and the “weight loss, morphological or behavioral changes” value is “No weight loss, morphological or behavioral changes were noted”. Further, the tolerability result in the data set on CL57BL/6 mice (CL57BL/6 (normal) mice) is “well-tolerated”. Also, the “platelets, neutrophils, lymphocytes (trend)” value with CL57BL/6 mice (single intravenous bolus 25 mg/kg, 24 hours) was “trend towards reduction of platelets and neutrophils, and also an increase in lymphocytes”. Further, the serum chemistry result in the data set with CL57BL/6 mice (single intravenous bolus, […] 1a and 7.9 mg/kg 3c respectively, 24 hours) is recorded as “unaffected”.

As to `Fc1cccc(Cl)c1C1CC(c2ccc(Cl)cc2)Nc2ncnn21` (single isomer, unassigned) [enantiomer 1 of 1a], the “No cytotoxicity observed up to the highest concentration tested” value in the data set on HepG2.2.15 cell line was more than 50 µM.

Take `Fc1cccc(F)c1C1C=C(c2ccc(Cl)cc2)Nc2ncnn21` (centres unmarked) [Compound 3c, 5-(4-Chlorophenyl)-7-(2,6-difluorophenyl)-4,7-dihydro-[1,2,4]triazolo[1,5-a]pyrimidine]: in data set [1] (25 and 7.9 mg/kg), the “deaths as a result of compound exposure” value was “No animals were observed to have died as a result of compound exposure”.

(Values after publication PMC3158247 (Journal of medicinal chemistry, 2011).)
